Measurements reported in paper PMC12259270, “Sensory neuron–expressed FGF13 controls nociceptive signaling in diabetic neuropathy models” (The Journal of Clinical Investigation, 2025).
Several values for one entry are separate records, joined by “and”; a condition that tells them apart may be missing. Equal values may be shown once. Residues, ends and D or L forms follow the SMILES beside them. *: point of attachment. NHPh = c1ccc(N*)cc1

Target: T1, human Nav1.7 (Homo sapiens, UniProt Q15858)
T1 construct: expressed in transfected cells; host or cells: HEK293 stably expressing human Nav1.7
T1 sequence (Q92913 1-192 partner limits assumed): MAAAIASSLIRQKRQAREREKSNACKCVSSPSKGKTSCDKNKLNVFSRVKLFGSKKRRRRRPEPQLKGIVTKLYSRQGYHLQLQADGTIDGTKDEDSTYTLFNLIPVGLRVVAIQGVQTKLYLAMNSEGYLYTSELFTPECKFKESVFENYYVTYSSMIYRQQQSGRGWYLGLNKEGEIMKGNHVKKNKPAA
T1 sequence (Q15858 1-1977 isoform Q15858-3): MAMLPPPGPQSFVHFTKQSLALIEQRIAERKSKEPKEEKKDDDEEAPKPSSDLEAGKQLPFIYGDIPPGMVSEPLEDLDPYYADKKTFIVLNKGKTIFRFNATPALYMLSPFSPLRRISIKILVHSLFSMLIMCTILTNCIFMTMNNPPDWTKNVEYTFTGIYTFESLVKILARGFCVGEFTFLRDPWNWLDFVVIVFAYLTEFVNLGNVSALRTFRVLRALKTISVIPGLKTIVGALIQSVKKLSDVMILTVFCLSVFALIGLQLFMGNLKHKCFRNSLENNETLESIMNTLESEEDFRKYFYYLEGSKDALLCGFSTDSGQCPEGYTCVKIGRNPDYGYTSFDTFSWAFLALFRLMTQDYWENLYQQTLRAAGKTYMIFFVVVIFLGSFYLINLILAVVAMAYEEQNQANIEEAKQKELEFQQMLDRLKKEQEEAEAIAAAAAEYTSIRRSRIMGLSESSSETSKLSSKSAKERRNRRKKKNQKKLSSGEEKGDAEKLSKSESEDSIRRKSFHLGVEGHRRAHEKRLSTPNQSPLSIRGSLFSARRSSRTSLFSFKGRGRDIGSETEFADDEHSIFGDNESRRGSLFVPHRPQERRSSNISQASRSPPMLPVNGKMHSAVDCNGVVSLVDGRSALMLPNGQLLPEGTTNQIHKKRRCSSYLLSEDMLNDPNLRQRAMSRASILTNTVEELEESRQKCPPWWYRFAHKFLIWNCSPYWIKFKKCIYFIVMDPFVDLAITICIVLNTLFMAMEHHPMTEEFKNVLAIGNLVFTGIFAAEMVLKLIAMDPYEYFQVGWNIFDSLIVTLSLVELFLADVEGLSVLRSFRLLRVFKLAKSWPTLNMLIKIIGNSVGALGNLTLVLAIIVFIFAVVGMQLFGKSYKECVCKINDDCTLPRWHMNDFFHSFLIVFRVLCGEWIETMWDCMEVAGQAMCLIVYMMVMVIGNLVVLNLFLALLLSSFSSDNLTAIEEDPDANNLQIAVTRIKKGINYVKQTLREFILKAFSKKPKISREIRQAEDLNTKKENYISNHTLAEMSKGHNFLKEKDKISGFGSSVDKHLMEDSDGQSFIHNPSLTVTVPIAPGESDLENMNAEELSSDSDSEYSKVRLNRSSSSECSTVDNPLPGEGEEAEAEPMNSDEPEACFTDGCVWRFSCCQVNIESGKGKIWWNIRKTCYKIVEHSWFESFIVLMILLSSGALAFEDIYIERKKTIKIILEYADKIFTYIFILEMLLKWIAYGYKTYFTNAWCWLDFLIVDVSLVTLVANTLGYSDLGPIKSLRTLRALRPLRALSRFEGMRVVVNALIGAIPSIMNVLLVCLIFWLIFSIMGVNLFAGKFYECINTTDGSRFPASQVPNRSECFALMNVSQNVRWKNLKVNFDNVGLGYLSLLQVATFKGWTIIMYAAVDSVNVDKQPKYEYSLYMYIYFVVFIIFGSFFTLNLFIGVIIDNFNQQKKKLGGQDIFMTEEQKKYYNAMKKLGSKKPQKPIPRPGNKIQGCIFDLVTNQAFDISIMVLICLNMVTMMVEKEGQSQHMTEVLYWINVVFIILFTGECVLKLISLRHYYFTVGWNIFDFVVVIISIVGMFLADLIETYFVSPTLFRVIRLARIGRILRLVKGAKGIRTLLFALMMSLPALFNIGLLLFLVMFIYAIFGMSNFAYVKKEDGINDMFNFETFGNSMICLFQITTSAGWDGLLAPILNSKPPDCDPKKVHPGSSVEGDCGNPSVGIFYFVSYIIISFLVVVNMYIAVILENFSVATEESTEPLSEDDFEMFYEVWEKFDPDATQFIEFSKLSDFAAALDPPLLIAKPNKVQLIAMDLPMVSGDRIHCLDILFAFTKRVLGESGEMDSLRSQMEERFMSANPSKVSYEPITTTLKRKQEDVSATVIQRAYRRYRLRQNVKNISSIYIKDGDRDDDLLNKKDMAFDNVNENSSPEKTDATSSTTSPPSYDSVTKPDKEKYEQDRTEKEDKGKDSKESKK
Assay: Whole-cell patch-clamp, HEK293 cells stably expressing human Nav1.7 with GFP or FGF13-GFP
Type: cell-based
Conditions: for Activation / LTI, 2nd Pulse / LTI, 3rd Pulse / LTI, 4th Pulse / Peak Density / Steady-State inactivation / Tau (τ): HEK293 Nav1.7; for Figure 4G, Mean per step (normalized) / Figure 4H, Mean per step (step 1 = 100): N 10
Protocol: Whole-cell patch clamp electrophysiology
HEK293-Nav1.7 cells, HEK293 stably expressing human Nav1.6 (HEK-Nav1.6), HEK293 stably expressing human Nav1.5 (HEK-Nav1.5), human hIPSC-derived sensory neurons (RealDRGTM from Anatomic Incorporated 1020F1-1M) and donor-derived DRG neurons were plated at low density on glass coverslips and processed for whole-cell patch clamp electrophysiology in voltage-clamp and/or current clamp mode. Whole-cell patch electrophysiological experiments were conducted following previously published studies (26). Current densities were obtained by dividing INa amplitude by membrane capacitance. Current –voltage relationships were generated by plotting current density as a function of the […]. Conductance (G Na) was calculated by the […]
where INa is the current amplitude at voltage Vm, and Erev is the Na+ reversal potential.
Activation curves were derived by plotting normalized GNa as a function of test potential and fitted using […]
Where GNa,Max is the maximum conductance, Va is the membrane potential of half-maximal activation, Em is the membrane voltage and k is the slope factor. For steady -state inactivation, normalized current amplitude (INa/INa,Max) at the test potential was plotted as a function of prepulse potential (Vm) and fitted using the […]
Where Vh is the potential of half-maximal inactivation, E m is the membrane voltage, and k is the slope factor.
Transient INa inactivation decay was estimated with the standard exponential equation. Inactivation time constant (tau, τ) was fitted with the following equation: […]
where I(t) is the amplitude of the current at time t and Iss is the steady-state current during a single voltage-step.
The goodness of fitting was determined by correlation coefficient (R), and the cutoff of R was set at 0.85. To observe effects on long-term inactivation (LTI), a four-step protocol was employed during which cells were subjected to four 0 mV, 20 ms depolarization pulses separated by −90 mV, 40 ms recovery intervals. To control for various cell sizes, the current densities were calculated by dividing INa peak current amplitude/membrane capacitance (Cm). To represent the fraction of channels entering into LTI, the peak INa observed during depolarization cycles 2-4 was normalized to the peak INa observed during depolarization cycle 1 (INa/INa,Cycle 1) and plotted as a function of the depolarization cycle.
The cumulative (frequency-dependent) use-dependency was determined by applying 20 pulses with a depolarization to −10 mV (50 ms duration) and 50 ms recovery intervals with a train of 20 pulses at 10 Hz from a holding potential at -70 mV. The current pulses were normalized to the first reco rded pulse and the currents at the 2nd to 20th pulses were compared. The same train was used to record use-dependency at various frequencies […]
The rate of recovery from inactivation was recorded at -80 mV with a standard repriming voltage protocol.
The cells were prepulsed to -20 mV for 20 ms to inactivate all currents, then driven back to the recovery potential (Vrec) for increasing recovery durations before the test pulse to 0 mV. The maximum pulse rate was 0.5 Hz. The […]
follows previous publications (16). The time constants were estimated from single exponential decay to time courses measured at recovery potentials ranging from -140 to -60 mV with the protocol as mentioned above.
Electrophysiological Recordings
HEK293 cells: Electrophysiological recordings in HEK293 stably expressing Nav1.7 (HEK-Nav1.7), Nav1.5 (HEK-Nav1.5) or Nav1.6 (HEK-Nav1.6) were performed at room temperature using a MultiClamp 700B or an Axopatch 200B amplifier (Molecular Devices) after incubating coverslips for 60 minutes either with 0.1% DMSO or 50 μM PW164 or ZL192 in the extracellular solution. The composition of recording solutions consisted of the […]
following salts: extracellular (mM): 140 NaCl, 3 KCl, 1 MgCl2, 1 CaCl2, 10 HEPES, 10 glucose, pH 7.3; […]
intracellular (mM): 130 CH3O3 SCs, 1 EGTA, 10 NaCl, 10 HEPES, pH 7.3. […]

CC(=O)N[C@@H](Cc1ccccc1)C(=O)N[C@@H](CC(C)C)C(=O)N1CCC[C@H]1C(=O)N[C@@H](CCCCN)C(=O)Nc1ccccc1 [ZL192] (Ac-FLPK-NHPh)
Activation (FGF13-GFP + ZL192 50 μM): −26.0 ± 0.8 mV | LTI, 2nd Pulse (FGF13-GFP + ZL192 50 μM): −69.72 ± 5.21 % maximal Na+ current | LTI, 3rd Pulse (FGF13-GFP + ZL192 50 μM): −60.33 ± 5.60 % maximal Na+ current | LTI, 4th Pulse (FGF13-GFP + ZL192 50 μM): −59.34 ± 4.68 % maximal Na+ current | Peak Density (FGF13-GFP + ZL192 50 μM): −139.7 ± 12.3 pA/pF | Steady-State inactivation (FGF13-GFP + ZL192 50 μM): −66.7 ± 2.6 mV | Tau (τ) (FGF13-GFP + ZL192 50 μM): 1.2 ± 0.06 ms | Activation (GFP + ZL192 50 μM): −25.7 ± 0.8 mV | LTI, 2nd Pulse (GFP + ZL192 50 μM): −67.94 ± 3.77 % maximal Na+ current | LTI, 3rd Pulse (GFP + ZL192 50 μM): −62.35 ± 57.35 % maximal Na+ current | LTI, 4th Pulse (GFP + ZL192 50 μM): −60.93 ± 3.90 % maximal Na+ current | Peak Density (GFP + ZL192 50 μM): −73.5 ± 8.1 pA/pF | Steady-State inactivation (GFP + ZL192 50 μM): −82.8 ± 1.1 mV | Tau (τ) (GFP + ZL192 50 μM): 1.3 ± 0.1 ms | EC50 (HEK-Nav1.7 coexpressing FGF13, Fig 4D, read-out: EC50, potentiation of INa): 8.5 ± 0.9 µM | Current density pA/pF (Figure 4D), individual cells (Nav1.7 + FGF13-GFP): -168.188 pA/pF and -158.115 pA/pF and -119.568 pA/pF and -127.538 pA/pF and -145.958 pA/pF and -170.525 pA/pF and -75.8621 pA/pF and -128.86 pA/pF and -208.183 pA/pF and -94.6899 pA/pF | pA/pF Dose response (Figure 4D), individual cells (Nav1.7 + FGF13-GFP, Log (conc(M) -4)): -162.222 pA/pF and -131.216 pA/pF and -115.311 pA/pF and -179.051 pA/pF and -125.271 pA/pF and -135.274 pA/pF | pA/pF Dose response (Figure 4D), individual cells (Nav1.7 + FGF13-GFP, Log (conc(M) -4.12)): -133.535 pA/pF and -142.569 pA/pF and -148.889 pA/pF | pA/pF Dose response (Figure 4D), individual cells (Nav1.7 + FGF13-GFP, Log (conc(M) -4.22)): -94.6899 pA/pF and -168.188 pA/pF and -158.115 pA/pF and -119.568 pA/pF and -127.538 pA/pF and -145.958 pA/pF and -170.525 pA/pF and -75.8621 pA/pF and -128.86 pA/pF and -208.183 pA/pF | pA/pF Dose response (Figure 4D), individual cells (Nav1.7 + FGF13-GFP, Log (conc(M) -4.6)): -142.47 pA/pF and -131.114 pA/pF and -147.185 pA/pF and -132.461 pA/pF and -139.907 pA/pF and -150.76 pA/pF and -140.066 pA/pF | pA/pF Dose response (Figure 4D), individual cells (Nav1.7 + FGF13-GFP, Log (conc(M) -4.82)): -154.895 pA/pF and -103.016 pA/pF and -135.94 pA/pF and -128.008 pA/pF and -135.582 pA/pF and -110.637 pA/pF and -137.656 pA/pF (2×) | pA/pF Dose response (Figure 4D), individual cells (Nav1.7 + FGF13-GFP, Log (conc(M) -5)): -99.4552 pA/pF and -132.222 pA/pF and -121.216 pA/pF and -111.311 pA/pF and -169.051 pA/pF and -139.271 pA/pF and -105.274 pA/pF | pA/pF Dose response (Figure 4D), individual cells (Nav1.7 + FGF13-GFP, Log (conc(M) -5.5)): -112.13 pA/pF and -130.035 pA/pF and -105.009 pA/pF and -123.737 pA/pF and -114.192 pA/pF and -90.2752 pA/pF and -117.316 pA/pF | pA/pF Dose response (Figure 4D), individual cells (Nav1.7 + FGF13-GFP, Log (conc(M) -6)): -149.506 pA/pF and -142.879 pA/pF and -66.945 pA/pF and -161.516 pA/pF and -59.6444 pA/pF and -67.5751 pA/pF and -70.501 pA/pF and -91.4611 pA/pF and -141.024 pA/pF and -68.796 pA/pF and -57.939 pA/pF | Figure 4G, Mean per step (normalized) (Nav1.7 + FGF13-GFP, Steps 1): 1 | Figure 4H, Mean per step (step 1 = 100) (Nav1.7 + FGF13-GFP, Steps 1): 100 | Figure 4H, Mean per step (step 1 = 100) (Nav1.7 + FGF13-GFP, Steps 2): 69.7172 | Figure 4G, Mean per step (normalized) (Nav1.7 + FGF13-GFP, Steps 3): 0.9185 | Figure 4H, Mean per step (step 1 = 100) (Nav1.7 + FGF13-GFP, Steps 3): 60.3376 | Figure 4H, Mean per step (step 1 = 100) (Nav1.7 + FGF13-GFP, Steps 4): 59.3427 | Figure 4G, Mean per step (normalized) (Nav1.7 + FGF13-GFP, Steps 5): 0.9162 | Figure 4G, Mean per step (normalized) (Nav1.7 + FGF13-GFP, Steps 10): 0.8818 | Figure 4G, Mean per step (normalized) (Nav1.7 + FGF13-GFP, Steps 15): 0.8857
